Assays:
PC3 cells = assay: XTT assay for cell viability, PC3 cells; assay type: cell-based; conditions: Homo sapiens, PC-3; PC3 cell proliferation, 96 hours
Procedure: Using a commercial kit from Sigma Aldrich (Catalog #X34251) and following its protocol, PC3 cells in the log phase of growth were employed and seeded at an optimal density of 1000 cell/well on to 96 well plates and incubated for 24 hours followed by the addition of compounds of formula (I) in serial dilutions. Compound dilutions were made in DMSO. The cells were incubated with the compounds of formula (I) for 96 hours and XTT tetrazolium dye (Sigma, USA) was subsequently added and incubated at 37° C. After the color formation, absorbance was measured at 465 nm in a Spectramax® Gemini spectrophotometer. EC50 values were calculated using a sigmoidal dose response curve fit in GraphPad Prism® v5 software. The tested compounds of formula (I) which caused inhibition of PC3 cell proliferation as determined by this assay protocol are shown in Table 2.

PI3Kα (wild-type) = target: T1, PI3Kα (wild-type) (Homo sapiens, UniProt P42336); assay: PI3 Kinase TR-FRET assay, PI3Kα (wild-type); assay type: biochemical; conditions: wild-type P110/P85α, 10 μM ATP
T1 construct: made in house; host or cells: SF9 insect cells
Procedure: The ability of compounds of the invention to inhibit PI3K activity was determined in a homogeneous TR-FRET assay using a PI3K assay kit (Millipore, USA; cat #33-016) according to manufacturer's instructions. PI3-Kinases (isoforms α, β, γ and δ) catalyze the phosphorylation of phosphatidylinositol, PIP2 to PIP3 in the presence of ATP and Mg^2+. The PIP3 product is detected by displacement of biotin-PIP3 from an energy transfer complex consisting of Europium labeled anti-GST monoclonal antibody, a GST-tagged PH domain, biotinylated PIP3 and Streptavidin-APC. Excitation of Europium in the complex results in an energy transfer to the APC and a fluorescence emission at 665 nm. The PIP3 product displaces biotin-PIP3 from the complex resulting in a loss of energy transfer and thus a decrease in signal.
To test for the ability of compounds to inhibit the activity of PI3Kα (wild-type), exemplary compounds of formula (I) were dissolved in DMSO and directly distributed into 384-well plates at a volume of 0.5 μL. 14.5 μL of P110/P85α/PIP2 mixture in buffer (obtained from the Millipore kit) containing MgCl2 (40 mM) and DTT (5 mM) was added to compound wells and incubated for 60 minutes at room temperature. P110/P85α was expressed in SF9 insect cells and purified nickel column extraction. Five ng of wild-type P110/P85α was used in the assay. The kinase reaction was started by the addition of ATP. The assay concentrations of both PIP2 and ATP were 10 μM. The reaction mixture was incubated for 30 minutes at room temperature and was terminated by the addition of stop mix and detection mix. Fluorescence was measured at 615 and 665 nm upon excitation at 340 nm in a Victor™ V5 fluorometer (Perkin Elmer, USA). The fluorescence emission ratio at 665 to 615 nm, proportional to the kinase activity, was plotted against the compound concentration to generate dose-response curves and IC50 values were determined using GraphPad Prism® 5 software.

mTOR kinase = target: T2, mTOR kinase (Homo sapiens, UniProt P42345); assay: mTOR kinase TR-FRET assay; assay type: biochemical; conditions: 20 μM ATP
T2 construct: purchased Millipore, USA
Procedure: Compound inhibition for mTOR kinase was determined in a homogeneous TR-FRET assay using the Lance® ULight-p70 S6K (Thr 389) peptide (obtained from Perkin-Elmer). The ULight™-labeled synthetic peptide contains the amino acid residues surrounding Thr389 of human p70 S6K. The ULight-p70 S6K peptide is phosphorylated at Thr389 by mTOR. Phosphorylation motif: LGFTYVAP as substrate.
The compound dilution was carried out in 100% DMSO followed by a buffer dilution. The reaction buffer was HEPES (50 mM pH 7.5), EGTA (1 mM), MnCl2 (3 mM). Test compounds at various concentrations were pre-incubated with mTOR (Millipore, USA; 5 ng) for 60 min, and then the Lance® ULight-p70 S6K (Thr 389) peptide (50 nM) was added along with ATP (20 μM). After incubating the reaction mixture for 60 minutes at room temperature, the kinase reaction was terminated by the addition of EDTA (10 mM) followed by the addition of detection mix, i.e., 1 nM Eu-labeled anti-phospho-substrate antibody (Perkin Elmer, USA). The fluorescence emission at […] was measured upon excitation at 340 nm. IC50 values were subsequently determined using a sigmoidal dose-response curve (variable slope) in GraphPad Prism® 5 software.
Compounds of formula (I) caused inhibition of mTOR kinase activity as determined by this assay.

T2 sequence (P42345 1362-2549 limits assumed): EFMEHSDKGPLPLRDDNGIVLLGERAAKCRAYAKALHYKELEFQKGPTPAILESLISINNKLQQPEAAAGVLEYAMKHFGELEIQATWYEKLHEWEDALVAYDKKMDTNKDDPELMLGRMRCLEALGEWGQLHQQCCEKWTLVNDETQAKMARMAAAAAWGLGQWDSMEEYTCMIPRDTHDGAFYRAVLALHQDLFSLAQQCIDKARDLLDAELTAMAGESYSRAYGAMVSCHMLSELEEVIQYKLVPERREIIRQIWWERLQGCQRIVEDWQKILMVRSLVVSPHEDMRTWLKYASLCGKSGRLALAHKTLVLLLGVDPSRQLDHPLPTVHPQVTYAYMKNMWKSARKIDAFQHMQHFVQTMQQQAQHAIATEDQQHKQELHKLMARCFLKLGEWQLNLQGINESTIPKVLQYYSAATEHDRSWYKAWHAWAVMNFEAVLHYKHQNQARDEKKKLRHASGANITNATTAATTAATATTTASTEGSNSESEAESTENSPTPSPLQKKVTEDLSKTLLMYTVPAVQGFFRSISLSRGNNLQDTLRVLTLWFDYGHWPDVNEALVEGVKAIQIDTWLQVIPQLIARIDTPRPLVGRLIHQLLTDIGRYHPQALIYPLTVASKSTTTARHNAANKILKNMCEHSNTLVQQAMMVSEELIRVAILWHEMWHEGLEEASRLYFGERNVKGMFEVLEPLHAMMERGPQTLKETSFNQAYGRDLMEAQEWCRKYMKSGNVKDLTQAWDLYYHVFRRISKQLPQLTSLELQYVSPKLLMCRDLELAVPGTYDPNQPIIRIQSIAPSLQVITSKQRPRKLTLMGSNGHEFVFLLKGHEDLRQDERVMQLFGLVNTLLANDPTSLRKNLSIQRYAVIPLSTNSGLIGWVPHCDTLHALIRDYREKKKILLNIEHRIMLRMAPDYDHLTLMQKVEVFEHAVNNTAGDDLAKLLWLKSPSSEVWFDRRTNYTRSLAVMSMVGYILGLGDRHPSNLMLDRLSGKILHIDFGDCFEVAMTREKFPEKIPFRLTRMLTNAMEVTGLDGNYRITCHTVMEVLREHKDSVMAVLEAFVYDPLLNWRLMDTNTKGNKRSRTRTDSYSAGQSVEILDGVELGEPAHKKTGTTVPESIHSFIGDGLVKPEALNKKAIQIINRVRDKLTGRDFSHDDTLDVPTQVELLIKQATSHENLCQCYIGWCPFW
T1 sequence (P42336 whole entry, species assumed): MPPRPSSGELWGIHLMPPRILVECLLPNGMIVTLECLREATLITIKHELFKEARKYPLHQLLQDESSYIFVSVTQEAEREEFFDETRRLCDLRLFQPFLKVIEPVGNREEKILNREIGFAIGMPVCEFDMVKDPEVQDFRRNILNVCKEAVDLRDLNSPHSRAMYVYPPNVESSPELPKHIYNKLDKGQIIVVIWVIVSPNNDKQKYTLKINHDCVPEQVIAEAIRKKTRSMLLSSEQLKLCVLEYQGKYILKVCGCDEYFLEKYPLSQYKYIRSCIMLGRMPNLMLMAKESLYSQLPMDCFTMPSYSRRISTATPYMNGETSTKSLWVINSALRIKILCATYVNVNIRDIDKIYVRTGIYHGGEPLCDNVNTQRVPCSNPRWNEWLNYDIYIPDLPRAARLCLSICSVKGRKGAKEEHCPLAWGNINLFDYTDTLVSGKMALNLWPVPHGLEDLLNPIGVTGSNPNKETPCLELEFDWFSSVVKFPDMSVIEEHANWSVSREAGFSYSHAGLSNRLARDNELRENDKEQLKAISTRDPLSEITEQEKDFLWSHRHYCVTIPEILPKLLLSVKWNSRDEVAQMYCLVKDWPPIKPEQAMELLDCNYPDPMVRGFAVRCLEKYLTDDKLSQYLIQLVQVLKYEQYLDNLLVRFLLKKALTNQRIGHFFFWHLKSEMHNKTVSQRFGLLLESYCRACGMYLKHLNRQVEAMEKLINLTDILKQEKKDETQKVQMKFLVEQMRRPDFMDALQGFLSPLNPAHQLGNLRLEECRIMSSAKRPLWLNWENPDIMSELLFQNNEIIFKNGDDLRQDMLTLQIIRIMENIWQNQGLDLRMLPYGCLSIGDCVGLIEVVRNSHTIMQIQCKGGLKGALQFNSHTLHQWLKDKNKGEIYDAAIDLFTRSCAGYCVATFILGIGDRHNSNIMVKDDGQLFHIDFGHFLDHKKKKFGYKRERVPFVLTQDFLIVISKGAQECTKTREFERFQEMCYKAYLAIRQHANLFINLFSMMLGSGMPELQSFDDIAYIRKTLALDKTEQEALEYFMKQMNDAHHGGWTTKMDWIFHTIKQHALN
T1 sequence (P27986 whole entry partner, species assumed): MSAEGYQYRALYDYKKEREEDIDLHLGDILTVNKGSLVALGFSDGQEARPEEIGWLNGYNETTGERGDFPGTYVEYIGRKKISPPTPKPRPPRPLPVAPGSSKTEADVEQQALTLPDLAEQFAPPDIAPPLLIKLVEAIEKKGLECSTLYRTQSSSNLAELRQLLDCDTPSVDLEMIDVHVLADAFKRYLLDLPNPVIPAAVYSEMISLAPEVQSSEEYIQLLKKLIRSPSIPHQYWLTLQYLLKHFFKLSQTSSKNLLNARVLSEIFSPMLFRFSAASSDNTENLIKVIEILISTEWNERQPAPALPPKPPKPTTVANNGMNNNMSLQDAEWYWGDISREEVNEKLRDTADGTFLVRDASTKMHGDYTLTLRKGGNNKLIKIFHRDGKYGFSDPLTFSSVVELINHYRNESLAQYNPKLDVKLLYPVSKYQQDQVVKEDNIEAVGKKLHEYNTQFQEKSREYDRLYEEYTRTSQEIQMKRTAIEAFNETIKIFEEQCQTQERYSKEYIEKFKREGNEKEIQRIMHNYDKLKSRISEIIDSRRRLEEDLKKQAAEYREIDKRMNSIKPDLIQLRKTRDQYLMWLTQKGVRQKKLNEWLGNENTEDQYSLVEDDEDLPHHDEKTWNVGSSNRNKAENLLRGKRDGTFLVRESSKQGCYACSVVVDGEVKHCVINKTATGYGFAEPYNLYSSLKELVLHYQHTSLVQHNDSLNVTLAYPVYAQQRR

| Compound | IC50 (PC3 cells) [nM] | IC50 (PI3Kα (wild-type)) [nM] | IC50 (mTOR kinase) [nM] |
| --- | --- | --- | --- |
| CNC(=O)Nc1cccc(-c2ccc3c(N4CCOCC4)nc(-c4cnc(N)nc4)nc3c2)c1 [Example 15, 1-(3-(2-(2-amino-pyrimidin-5-yl)-4-morpholinoquinazolin-7-yl)phenyl)-3-methylurea] | 501 to 5000 | 201 to 10000 | < 50 |
| CS(=O)(=O)Nc1cccc(-c2ccc3c(N4CCOCC4)nc(-c4cnc(N)nc4)nc3c2)c1 [Example 16, N-(3-(2-(2-amino-pyrimidin-5-yl)-4-morpholinoquinazolin-7-yl)phenyl)methane-sulfonamide] | 501 to 5000 | 50 to 200 | < 50 |
| Cc1ccc(-c2cnc3c(N4CCOCC4)nc(-c4cnc(N)nc4)nc3c2)o1 [Example 26, 5-(7-(5-methylfuran-2-yl)-4-morpholino-pyrido[3,2-d]pyrimidin-2-yl)pyrimidin-2-amine] | 501 to 5000 | < 50 | 50 to 200 |
| CNC(=O)Nc1cccc(-c2cnc3c(N4CCOCC4)nc(-c4cnc(N)nc4)nc3c2)c1 [Example 28, 1-(3-(2-(2-amino-pyrimidin-5-yl)-4-morpholinopyrido[3,2-d]pyrimidin-7-yl)phenyl)-3-methylurea] | 501 to 5000 | < 50 | 50 to 200 |
| CC(=O)N1CCN(C(=O)c2cccc(-c3cnc4c(N5CCOCC5)nc(-c5cnc(N)nc5)nc4c3)c2)CC1 [Example 35, 1-(4-(3-(2-(2-amino-pyrimidin-5-yl)-4-morpholinopyrido[3,2-d]-pyrimidin-7-yl)benzoyl)-piperazin-1-yl)ethanone] | 501 to 5000 | < 50 | 50 to 200 |
| Nc1ncc(-c2nc(N3CCOCC3)c3ncc(-c4ccc(C(=O)Nc5ccncc5)cc4)cc3n2)cn1 [Example 38, 4-(2-(2-aminopyrimidin-5-yl)-4-morpholino-pyrido[3,2-d]pyrimidin-7-yl)-N-(pyridin-4-yl)-benzamide] | > 1000 | < 50 | 50 to 200 |

Other lines, results leading:

| IC50 (PC3 cells) [nM] | IC50 (PI3Kα (wild-type)) [nM] | IC50 (mTOR kinase) [nM] | Compound |
| --- | --- | --- | --- |
| 501 to 5000 | < 50 | < 50 | Nc1ncc(-c2nc(N3CCOCC3)c3ncc(-c4cccc(NC(=O)N5CCOCC5)c4)cc3n2)cn1 [Example 10, N-(3-(2-(2-aminopyrimidin-5-yl)-4-morpholinopyrido[3,2-d]pyrimidin-7-yl)-phenyl)morpholine-4-carboxamide] |
| 501 to 5000 | 201 to 10000 | 50 to 200 | CC(=O)Nc1cccc(-c2ccc3c(N4CCOCC4)nc(-c4cnc(N)nc4)nc3c2)c1 [Example 13, N-(3-(2-(2-amino-pyrimidin-5-yl)-4-morpholinoquinazolin-7-yl)phenyl)acetamide] |
| 501 to 5000 | 201 to 10000 | 201 to 10000 | Cn1cc(-c2ccc3c(N4CCOCC4)nc(-c4cnc(N)nc4)nc3c2)cn1 [Example 14, 5-(7-(1-methyl-1H-pyrazol-4-yl)-4-morpholinoquinazolin-2-yl)pyrimidin-2-amine] |
| 100 to 500 | < 50 | < 50 | Nc1ncc(-c2nc(N3CCOCC3)c3ncc(-c4ccco4)cc3n2)cn1 [Example 25, 5-(7-(furan-2-yl)-4-morpholinopyrido[3,2-d]-pyrimidin-2-yl)pyrimidin-2-amine] |
| 100 to 500 | < 50 | < 50 | Nc1ncc(-c2nc(N3CCOCC3)c3ncc(-c4ccc(C(=O)Nc5cccnc5)o4)cc3n2)cn1 [Example 34, 5-(2-(2-aminopyrimidin-5-yl)-4-morpholino-pyrido[3,2-d]pyrimidin-7-yl)-N-(pyridin-3-yl)furan-2-carboxamide] |
| 100 to 500 | < 50 | < 50 | CC(F)C(=O)Nc1cccc(-c2cnc3c(N4CCOCC4)nc(-c4cnc(N)nc4)nc3c2)c1 (stereo not drawn) [Example 51, N-(3-(2-(2-amino-pyrimidin-5-yl)-4-morpholinopyrido[3,2-d]pyrimidin-7-yl)phenyl)-2-fluoropropanamide] |

Source: patent US9145411B2, “Substituted amino-pyrimidine derivatives” (Asana Biosciences, LLC, priority 2012, dated 2015)
